Results taken from patent US9164103B2, “Monitoring and inhibiting human immunodeficiency virus infection by modulating HMGB1 dependent triggering of HIV-1 replication and persistence” (priority 2008, dated 2015).

Key:
[1] = tested on: iDCs; test: aNK-induced apoptosis of uninfected iDCs (7-AAD assay, NK:DC 5:1); assay type: cell-based, human; conditions: NK:DC ratio 5:1, 24 h
Protocol: FIGS. 9(a)-(g). aNK-dependent apoptosis of iDCs is TNF-related apoptosis-inducing ligand (TRAIL)-dependent and involves the DR4 receptor. (a) CD56^+ NK cells were purified from the blood of healthy donors. NK cells were maintained in culture with suboptimal concentrations of interleukin-2 (IL-2) (100 ng/ml) (rNK cells) or activated (aNK cells) by the addition PHA (10 μg/ml) and IL-2 (10 μg/ml) to cultures. The intensity of staining with anti-CD56 antibodies allows the distinction between two NK cell populations expressing CD56 highly (CD56^bright cells) and weakly (CD56^dim cells). Data represent the mean±sd of three independent experiments. (b) Membrane TRAIL (mTRAIL) expression by NK cells is determined by flow cytometry with anti-CD56 and -mTRAIL specific antibodies. Data represent one of three independent experiments. […] The proportions of mTRAIL-expressing aNK cells among CD56^bright and CD56^dim populations were determined. […] DR4 expression at the DCs surface is analyzed after 1, 2, 3.5, 6 and 24 h of NK-DC coculture. […] Cell death was then quantified with the 7-AAD assay. […] (f) 24 h cell-free culture supernatants of iDCs, rNK cells, aNK cells (10^6/ml), or cocultures of aNK cells and iDCs (ratio 5:1) were tested for soluble TRAIL (sTRAIL) content. sTRAIL was quantified by ELISA. […] The viability status of DCs was determined by flow cytometry with the 7-AAD assay. […]

[2] = tested on: R5-HIV-1Ba-L; test: HIV-1 replication in infected iDCs (p24 ELISA in culture supernatant); assay type: cell-based; conditions: for HIV-1 production (p24 in supernatant): 3 days, inhibitor 10 μg/ml
Protocol: FIGS. 6 (a), (b) and (c). Exogenous rh-HMGB1 triggers HIV-1 and HIV-2 replication in iDC. (a) HIV-1-infected iDC were cultured alone or in the presence of aNK cells for 3 days. Rh-HMGB1 (1 μg/ml) was added in some cultures. HIV replication was measured by p24 quantification in culture supernatant (b) HIV1-infected iDC were cultured alone or in the presence of aNK cells for 3 days. Blocking anti-HMGB1 antibodies (10 μg/ml) or glycyrrhizin (10 μg/ml) were added at culture initiation. HIV replication was measured by p24 quantification in culture supernatant. The mean±sd of three independent experiments is shown. Statistical comparisons were made with the non parametric Mann-Whitney test. * p<0.05; (c) HIV-2-infected iDC were cultured alone or in the presence of aNK cells for 3 days. Rh-HMGB1 (1 μg/ml) was added in some cultures. HIV replication was measured by p24 quantification in culture supernatant.
Exogenous HMGB1 was recently reported to increase HIV-1 replication in infected monocytic cell lines38, and to induce in vitro the reactivation of HIV-1 in PBMCs from HIV-1-infected patients under antiretroviral therapy39. Therefore, the question of the role of HMGB1 in the NK-dependent triggering of HIV replication in DCs was addressed. […] To investigate the influence of HMGB1 in the triggering of HIV-1 replication in infected-iDC-aNK cocultures, HMGB1-specific neutralizing antibodies or glycyrrhizin were added to these cocultures and p24 production was measured in the supernatant. […] They also indicate that aNK cell-dependent stimulation of HIV-1 replication in iDCs is mediated by HMGB1.
Virus stock preparation was prepared by amplification of R5-HIV-1Ba-L on MDM from healthy donors. Viral stock was then clarified by centrifugation prior to determination of HIV1 p24 concentration. iDCs were plated in 96-well culture plates at 200,000 cells/well and incubated for 3 hours at 37° C. in a 5% CO2 atmosphere with R5-HIV-1BAL at various concentrations (0.001 to 10 ng p24/ml). Cells were harvested, washed four times with media containing 10% FCS and, when indicated, rNK or aNK cells were added at a NK:DC ratio of 1:5, unless otherwise indicated. NK-DC cocultures lasted 24 h before analysis of the maturation stage of DCs and/or quantification of viral production. In some experiments (FIG. 6), HIV-1 infected iDCs were incubated alone or with aNK cells for 3 days, in the presence of rh-HMGB1 (1 μg/ml) (R&DSystems), and in some cultures in the presence of rabbit antiHMGB1 Abs (10 μg/ml) (Abcam, Cambridge, UK) or Glycyrrhizin (10 μg/ml).
The concentration of HIV-1 in the supernatant of infected cell cultures was determined by measuring the amount of p24 protein by ELISA (Ingen, Belgium). DNA from cells was extracted using the GIAamp DNA Blood Mini Kit (Qiagen, Basel, Switzerland) and quantified HIV-1 proviral load by RT-PCR as described previously54. The frequency of HIV-1-infected cells was determined by flow cytometry to detect intracellular p24 molecule. Cells were surface stained with antibodies specific for CD40 (BD Biosciences, San Jose, Calif.) to target DC and intracellular stained with p24-specific antibodies (Coulter). Stained cells were fixed in 1% PFA, immediately acquired on a FACScalibur (Becton Dickinson) and analyzed with FlowJo software. In some experiments infected DCs were imaged, after immunofluorescence, by laser scanning confocal microscopy.

[3] = tested on: HIV-1-infected iDCs; test: Apoptosis of HIV-1-infected iDCs (7-AAD assay); assay type: cell-based, human
Protocol: Living cells are 7-AAA^−, apoptotic cells 7-AAD^+, and apoptotic debris are 7-AAD^−FSC^low. Dot plots represent one of at least three independent experiments. […] Cell death was then quantified with the 7-AAD assay. The mean±sd of three independent experiments was presented.
(a) iDCs or HIV-1-infected iDCs were cultured alone or in the presence of aNK cells (NK:DC ratio of 5:1). […] Cell death was then quantified with the 7-AAD assay. (b) Same experiments were performed in the presence of blocking anti-HMGB1 antibodies (10 and 15 μg/ml). One representative experiment out of three conducted is shown.
Immature DCs (iDCs) were prepared from sorted monocytes from healthy donors, cultured for 6 days in the presence of IL-4 and GM-CSF. In some experiments, iDCs were infected with R5-HIV-1 (1 ng/ml of p24). Coculture experiments with autologous purified aNK cells (activated by PHA+IL-2) were performed at various NK:DC ratios. The influence of NK-DC interaction on DC's maturation and apoptosis was analyzed using multiparametric flow cytometry, combining 7-AAD staining with membrane and intracellular staining with mAbs specific for HLA-DR, DC-SIGN, CD83, CD86, DR4, mTRAIL, etc.
To investigate the impact of HIV on aNK-induced iDCs' apoptosis, iDCs were infected with R5-HIV-1 (1 ng of p24/ml).

[4] = tested on: iDCs cocultured with aNK cells; test: aNK-dependent maturation of uninfected iDCs in aNK-iDC coculture (CD86/HLA-DR flow cytometry); assay type: cell-based, human; conditions: 24 h aNK-iDC coculture, inhibitor 10 μg/ml added at initiation
Protocol: (a) Left panel: iDCs were cultured for 24 h either alone or with aNK cells, in the presence of blocking anti-HMGB1 antibodies (10 μg/ml) or glycyrrhizin (10 μg/ml). The maturation status of DCs was determined by flow cytometry with CD86 and HLA-DR—specific antibodies. Right panel: same experiment, but performed with HIV-1 infected iDCs. Data represent mean±sd of at least three independent experiments, and statistical comparisons were made with the non parametric Mann-Whitney test. * p<0.05. […] NK cells were excluded from the analysis through the co-staining with CD3- and CD56-specific antibodies (CD3^−CD56^+).
To determine the possible involvement of HMGB1 in NK-dependent DC maturation, glycyrrhizin, which is known to interact specifically with soluble HMGB1 molecule31, was used as well as anti-HMGB1 antibodies (FIG. 3a). […] The possible involvement of RAGE during NK-DC cross-talk was evaluated with the same approach, comparing RAGE expression on DCs cocultured with aNK cells and DC cultured alone.
After 6 days of culture in the presence of IL-4 and GM-CSF, iDCs (10^6 cells/ml) were either non stimulated, or stimulated during 48 h with 10 μg/ml LPS (E. coli serotype 026-B6, Sigma-Aldrich) to obtain DC0 cells, or 500 ng/ml of trimeric CD40L (Sigma-Aldrich) to obtain DC1 cells, or 10 μg/ml of LPS and 1 μg/ml PGE2 (Sigma-Aldrich) to obtain DC2 cells. […]

**Q.** With `C/C=C/[C@H]1O[C@@](O)([C@@H](C)[C@H](O)[C@H](C)[C@H]2OC(=O)/C(OC)=C/C(C)=C/[C@@H](C)[C@@H](O)[C@@H](CC)[C@@H](O)[C@H](C)C/C(C)=C/C=C/[C@@H]2OC)C[C@@H](O[C@H]2C[C@@H](O)[C@H](OC(N)=O)[C@@H](C)O2)[C@@H]1C` [Concanamycin A] as the molecule, how does the “NK-dependent iDCs apoptosis” value [1] read?
**A.** Its value is “no effect”.

**Q.** Which results are given for `CC1(C)[C@@H](O[C@H]2O[C@H](C(=O)O)[C@@H](O)[C@H](O)[C@H]2O[C@@H]2O[C@H](C(=O)O)[C@@H](O)[C@H](O)[C@H]2O)CC[C@]2(C)[C@H]3C(=O)C=C4[C@@H]5C[C@@](C)(C(=O)O)CC[C@]5(C)CC[C@@]4(C)[C@]3(C)CC[C@@H]12` [glycyrrhizin]?
**A.** HIV-1 replication ([2]; 24 h cultures of infected iDCs, absence of NK cells): decreased significantly HIV-1 replication; HIV-1 production (p24 in supernatant) ([2]; infected DC cocultured with aNK cells): abrogated HIV-1 production; HIV-1 production (p24 in supernatant) ([2]; infected DC cultured alone): abrogated HIV-1 production; resistance of HIV-1-infected iDCs to aNK-induced apoptosis ([3]; NK:DC ratio 5:1, inhibition assays): found dependent on HMGB1; proportions of mature DCs (CD86bright HLA-DRbright) [4]: reduced the proportions of mature DCs

B1: rhs-TRAIL: recombinant human soluble TRAIL (protein, UniProt P50591 39-281, looked up)
extracellular domain: TNELKQMQDKYSKSGIACFLKEDDSYWDPNDEESMNSPCWQVKWQLRQLVRKMILRTSEETISTVQEKQQNISPLVRERGPQRVAAHITGTRGRSNTLSSPNSKNEKALGRKINSWESSRSGHSFLSNLHLRNGELVIHEKGFYYIYSQTYFRFQEEIKENTKNDKQMVQYIYKYTSYPDPILLMKSARNSCWSKDAEYGLYSIYQGGIFELKENDRIFVSVTNEHLIDMDHEASFFGAFLVG
modifications: extracellular domain
**Q.** B1 was tested. Which “TRAIL-induced apoptosis of HIV-1-infected DCs” value ([3]; 24 h, 1-1000 ng/ml) did it give?
**A.** Its value is “still susceptible to TRAIL-induced apoptosis”.
